From patent US20240199634A1, “CYCLIC COMPOUNDS AND METHODS OF USING SAME” (SCHRÖDINGER, INC., priority 2021, published 2024)

What was measured:
[1] = system: phosphorylation of MCM2 S53 in colo205 cells; assay: Phosphorylated MCM2 MSD Electrochemiluminescence Assay; format: cell-based; conditions: Homo sapiens, COLO 205, 20 h incubation, read-out: pMCM2-S53 MSD Colo205 IC50
Protocol: Phosphorylated MCM2 MSD Electrochemiluminescence Assay
The effect of CDC7 inhibitors on cellular phosphorylation of the CDC7 substrate MCM2 was determined using the following protocol:
A total of 40,000 colo205 cells in 100 μL culture medium (1640 medium+10% Fetal bovine serum+1% Penicillin-Streptomycin) were plated in 96-well cell culture plates and allowed to attach for 6 hours. 3-fold serial dilutions of test compounds were prepared in completed PBS at 25× final concentration and 4 μL of each were added to the cells and incubated for 20 hours at 37° C., 5% CO2. Each concentration was tested in duplicate. After the 20 h incubation, cells were washed with 150 μL PBS and lysed with 40 μL MSD lysis buffer (obtained from Meso Scale Diagnostics) supplied with 1× complete ULTRA cocktail inhibitor (obtained from Roche). To detect phosphorylation of MCM2 S53, 30 μL of capture antibody solution (obtained from Abnova, catalog number H00004171-M01, 1:500) was added to each well of MULTI-ARRAY 96-well High Bind Plate, and incubated overnight. The antibody solution was removed, wells blocked with BSA solution and plates washed, followed by addition of 30 μl of cell lysate per well. After 2 h incubation, plates were washed. 30 μL of 1× detection antibody solution (obtained from Abcam, catalog number ab109133, 1:1000) was then added to each well and incubate for 1 hour. Plates were washed and 30 μL of 1× secondary antibody solution (obtained from MSD, catalog number R32AB-1, 1:5000) was added to each well and incubate for 1 hour. Plates were washed and 150 μL of 1× Read Buffer T was added to each well of the MSD plate. The electrochemiluminescence signal was measured on a MESO SECTOR 5600 plate reader. The percentage of remaining phosphorylated MCM2 signal was calculated following the equation below.
[formula] • HC (high control): Cells treated with DMSO • Cpds: Cells treated with test compounds • LC (low control): Cells treated with positive control CDC7 inhibitor

[2] = molecular target: T1, Full length human CDC7 protein co-expressed with DBF4 (Homo sapiens, UniProt O00311); assay: CDC7 Kinase Biochemical Assay (ADP-Glo, PDKtide substrate); conditions: 0.1 nM CDC7/DBF4, 1 μM ATP, 10 μM PDKtide, 4 h reaction
T1 construct: Full length human CDC7 protein co-expressed with DBF4; purchased SignalChem (China)
Protocol: CDC7 Kinase Biochemical Assay PROTOCOL:
Full length human CDC7 protein co-expressed with DBF4 was purchased from SignalChem (China). CDC7 kinase activity was determined with PDKtide (SignalChem) as a substrate and by measuring ADP production using the ADP-Glo™ Kinase Assay kit (Promega) following the manufacturer's instructions. The kinase reaction was performed using the following conditions: Buffer: 40 mM Tris pH 7.5, 20 mM MgCl2, 0.1 mg/mL BSA and 50 μM DTT. Final reaction mix contained 0.1 nM CDC7/DBF4, 1 μM ATP and 10 μM PDKtide. The kinase reaction time was 4 h. The ADP-Glo signal was measured using an EnVision plate reader (PerkinELmer).
Percent inhibition of CDC7 kinase activity was calculated based on the following formula:
[formula] • SSample: the signal of compounds • SHigh Ctrl: the signal of high control (DMSO) • SLow Ctrl: the signal of low control (positive control CDC7 inhibitor)

T1 sequence (O00311 whole entry): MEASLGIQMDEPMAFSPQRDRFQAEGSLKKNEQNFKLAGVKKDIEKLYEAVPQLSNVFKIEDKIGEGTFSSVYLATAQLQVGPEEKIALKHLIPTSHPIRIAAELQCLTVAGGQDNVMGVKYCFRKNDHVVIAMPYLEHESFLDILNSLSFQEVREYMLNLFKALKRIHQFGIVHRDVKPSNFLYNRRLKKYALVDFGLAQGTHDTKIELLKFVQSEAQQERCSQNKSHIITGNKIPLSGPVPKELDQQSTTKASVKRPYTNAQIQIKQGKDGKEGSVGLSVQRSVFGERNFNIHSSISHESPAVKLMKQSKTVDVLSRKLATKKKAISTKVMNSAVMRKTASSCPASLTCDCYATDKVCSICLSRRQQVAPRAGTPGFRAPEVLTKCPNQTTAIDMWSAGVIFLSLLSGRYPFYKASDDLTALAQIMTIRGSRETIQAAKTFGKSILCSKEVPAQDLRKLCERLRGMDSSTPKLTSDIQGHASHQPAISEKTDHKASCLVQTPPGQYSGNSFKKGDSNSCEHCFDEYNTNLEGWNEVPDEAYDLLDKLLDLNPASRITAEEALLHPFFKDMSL
T1 sequence (Q9UBU7 whole entry partner): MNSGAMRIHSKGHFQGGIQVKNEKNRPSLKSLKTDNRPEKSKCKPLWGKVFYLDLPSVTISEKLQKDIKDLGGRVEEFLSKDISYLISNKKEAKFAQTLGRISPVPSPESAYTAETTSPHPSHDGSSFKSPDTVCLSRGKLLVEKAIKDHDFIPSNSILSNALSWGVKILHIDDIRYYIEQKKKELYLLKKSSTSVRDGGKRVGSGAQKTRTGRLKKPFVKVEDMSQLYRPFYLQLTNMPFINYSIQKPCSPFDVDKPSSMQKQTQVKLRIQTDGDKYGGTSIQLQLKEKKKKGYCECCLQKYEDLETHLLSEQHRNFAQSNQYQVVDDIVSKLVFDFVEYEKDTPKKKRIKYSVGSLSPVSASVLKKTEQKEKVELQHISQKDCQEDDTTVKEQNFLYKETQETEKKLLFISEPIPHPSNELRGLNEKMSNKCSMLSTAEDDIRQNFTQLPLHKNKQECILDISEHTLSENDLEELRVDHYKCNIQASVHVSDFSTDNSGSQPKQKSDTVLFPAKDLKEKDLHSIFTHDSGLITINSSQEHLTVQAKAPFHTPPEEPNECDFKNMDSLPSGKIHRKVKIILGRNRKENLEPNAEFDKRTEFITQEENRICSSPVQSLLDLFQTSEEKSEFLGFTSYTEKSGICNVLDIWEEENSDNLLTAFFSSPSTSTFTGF

Row | SMILES | IC50 [1] [nM] | IC50 [2] [nM]
1 | CC(C)C1(O)COCc2c1[nH]c(=O)c1sc(-c3cn[nH]c3)cc21 (single isomer, unassigned) [Compound 16] | ≤ 5 | ≤ 1
2 | CCC1(O)COCc2c1[nH]c(=O)c1sc(-c3cn[nH]c3)cc21 (single isomer, unassigned) [Compound 18] | 5 to 20 | ≤ 1
3 | CC(C)(C)[C@@]1(O)COCc2c1[nH]c(=O)c1sc(-c3cn[nH]c3)cc21 (single isomer, unassigned) [Compound 20] | ≤ 5 | ≤ 1
4 | CC(C)(C)[C@@]1(O)COCc2c1[nH]c(=O)c1sc(-c3ccncc3)cc21 (single isomer, unassigned) [Compound 22] | ≤ 5 | ≤ 1
5 | CC(C)C1(O)COCc2c1[nH]c(=O)c1sc(-c3c[nH]nc3F)cc21 (single isomer, unassigned) [Compound 27] | ≤ 5 | ≤ 1
6 | Cn1nccc1-c1cc2c3c([nH]c(=O)c2s1)C(O)(C(F)(F)F)COC3 (single isomer, unassigned) [Compound 30] | > 50 | ≤ 1
7 | Cc1n[nH]cc1-c1cc2c3c([nH]c(=O)c2s1)C(O)(C(F)(F)F)COC3 (single isomer, unassigned) [Compound 32] | 5 to 20 | ≤ 1
8 | O=c1[nH]c2c(c3cc(-c4cn[nH]c4)sc13)CCCC2(O)C(F)F (single isomer, unassigned) [Compound 37] | 5 to 20 | ≤ 1
9 | CC1(O)CCCc2c1[nH]c(=O)c1sc(-c3cn[nH]c3)cc21 (single isomer, unassigned) [Compound 41] | > 50 | 1 to 10
10 | O=c1[nH]c2c(c3cc(-c4cn[nH]c4)sc13)COCC2(O)C(F)F (single isomer, unassigned) [Compound 42] | 20 to 50 | ≤ 1
11 | CC(C)C1(O)COCc2c1[nH]c(=O)c1sc(-c3ccncc3)cc21 (single isomer, unassigned) [Compound 44] | 5 to 20 | ≤ 1
12 | CC(C)C1(O)COCc2c1[nH]c(=O)c1sc(-c3ccns3)cc21 (single isomer, unassigned) [Compound 46] | 5 to 20 | ≤ 1
13 | CCC1(O)CC(F)(F)Cc2c1[nH]c(=O)c1sc(-c3cn[nH]c3)cc21 (single isomer, unassigned) [Compound 51] | ≤ 5 | ≤ 1
14 | CC(C)(C)C1(O)COCc2c1[nH]c(=O)c1sc(-c3ccncc3F)cc21 (single isomer, unassigned) [Compound 59] | ≤ 5 | ≤ 1
15 | Cc1cnccc1-c1cc2c3c([nH]c(=O)c2s1)C(O)(C(C)(C)C)COC3 (single isomer, unassigned) [Compound 69] | 5 to 20 | ≤ 1
16 | CN(C)C1(C)COCc2c1[nH]c(=O)c1sc(-c3cn[nH]c3)cc21 (single isomer, unassigned) [Compound 82] |  | 1 to 10
17 | CN(C)C1(C)COCc2c1[nH]c(=O)c1sc(-c3cn[nH]c3)cc21 (single isomer, unassigned) [Compound 83] |  | 1 to 10
18 | CC(C)C1(O)CCCc2c1[nH]c(=O)c1sc(-c3cn[nH]c3)cc21 (single isomer, unassigned) [Compound 87] |  | ≤ 1
19 | CC(C)C1(O)CCCc2c1[nH]c(=O)c1sc(-c3cn[nH]c3)cc21 (single isomer, unassigned) [Compound 88] |  | 1 to 10

Row | SMILES | IC50 [1] [nM] | IC50 [2] [nM]
20 | Cn1nccc1-c1cc2c3c([nH]c(=O)c2s1)C(O)(C(C)(C)C)COC3 (single isomer, unassigned) [Compound 89] | 5 to 20 | ≤ 1
21 | Cn1nccc1-c1cc2c3c([nH]c(=O)c2s1)C(O)(C(C)(C)C)COC3 (single isomer, unassigned) [Compound 90] |  | > 10
22 | Cc1n[nH]cc1-c1cc2c3c([nH]c(=O)c2s1)C(O)(C(C)(C)C)COC3 (single isomer, unassigned) [Compound 91] | ≤ 5 | > 10
23 | Cc1n[nH]cc1-c1cc2c3c([nH]c(=O)c2s1)C(O)(C(C)(C)C)COC3 (single isomer, unassigned) [Compound 92] |  | ≤ 1
24 | CC(F)(F)C1(O)COCc2c1[nH]c(=O)c1sc(-c3cn[nH]c3)cc21 (single isomer, unassigned) [Compound 95] |  | 1 to 10
25 | CC(F)(F)C1(O)COCc2c1[nH]c(=O)c1sc(-c3cn[nH]c3)cc21 (single isomer, unassigned) [Compound 96] |  | ≤ 1
26 | O=c1[nH]c2c(c3cc(-c4cn[nH]c4)sc13)CCCC2 [Compound 1, 2-(1H-pyrazol-4-yl)-6,7,8,9-tetrahydrothieno[2,3-c]quinolin-4(5H)-one] |  | ≤ 1
27 | O=c1[nH]c2c(c3c(F)c(-c4cn[nH]c4)sc13)CC(F)(F)CC2 [Compound 2, 1,8,8-trifluoro-2-(1H-pyrazol-4-yl)-5,6,7,9-tetrahydrothieno[2,3-c]quinolin-4-one] |  | ≤ 1
28 | COC12CCC(CC1)c1c2[nH]c(=O)c2sc(-c3cn[nH]c3)cc12 [Compound 7, 6-methoxy-2-(1H-pyrazol-4-yl)-6,7,8,9-tetrahydro-6,9-ethanothieno[2,3-c]quinolin-4(5H)-one] | 20 to 50 | ≤ 1
29 | O=c1[nH]c2c(c3cc(-c4cn[nH]c4)sc13)C1CCC2(O)CC1 [Compound 8, 6-hydroxy-2-(1H-pyrazol-4-yl)-6,7,8,9-tetrahydro-6,9-ethanothieno[2,3-c]quinolin-4(5H)-one] | 20 to 50 | ≤ 1
30 | O=c1[nH]c2c(c3cc(-c4ccncc4)sc13)C1CCC2(O)CC1 [Compound 9, 6-hydroxy-2-(pyridin-4-yl)-6,7,8,9-tetrahydro-6,9-ethanothieno[2,3-c]quinolin-4(5H)-one] |  | ≤ 1
31 | CC1(C)COCc2c1[nH]c(=O)c1sc(-c3cn[nH]c3)cc21 [Compound 58, 4,4-dimethyl-8-(1H-pyrazol-4-yl)-1,3,4,5-tetrahydro-6H-pyrano[4,3-b]thieno[3,2-d]pyridin-6-one] | > 50 | 1 to 10
32 | CC1(N2CCCC2)COCc2c1[nH]c(=O)c1sc(-c3cn[nH]c3)cc21 (centres unmarked) [Compound 71, 4-methyl-8-(1H-pyrazol-4-yl)-4-(pyrrolidin-1-yl)-1,3,4,5-tetrahydro-6H-pyrano[4,3-b]thieno[3,2-d]pyridin-6-one] |  | > 10
33 | CNC1(C)COCc2c1[nH]c(=O)c1sc(-c3cn[nH]c3)cc21 (centres unmarked) [Compound 84, 4-methyl-4-(methylamino)-8-(1H-pyrazol-4-yl)-1,3,4,5-tetrahydro-6H-pyrano[4,3-b]thieno[3,2-d]pyridin-6-one] |  | ≤ 1
34 | CC(C)(C)[C@@]1(O)COCc2c1[nH]c(=O)c1sc(N3CCOCC3)cc21 [Compound 85, (S)-4-(tert-butyl)-4-hydroxy-8-morpholino-1,3,4,5-tetrahydro-6H-pyrano[4,3-b]thieno[3,2-d]pyridin-6-one] | > 50 | ≤ 1
35 | CC(F)(F)CC1(O)COCc2c1[nH]c(=O)c1sc(-c3cn[nH]c3)cc21 (centres unmarked) [Compound 86, 4-(2,2-difluoropropyl)-4-hydroxy-8-(1H-pyrazol-4-yl)-1,3,4,5-tetrahydro-6H-pyrano[4,3-b]thieno[3,2-d]pyridin-6-one] |  | ≤ 1
36 | CC(C)(C)C1(O)CNCc2c1[nH]c(=O)c1sc(-c3cn[nH]c3)cc21 (centres unmarked) [Compound 93, 4-(tert-butyl)-4-hydroxy-8-(1H-pyrazol-4-yl)-1,3,4,5-tetrahydrothieno[2,3-c][1,6]naphthyridin-6(2H)-one] | 20 to 50 | ≤ 1
37 | CC(=O)N1Cc2c([nH]c(=O)c3sc(-c4cn[nH]c4)cc23)C(O)(C(C)(C)C)C1 (centres unmarked) [Compound 94, 2-acetyl-4-tert-butyl-4-hydroxy-8-(1H-pyrazol-4-yl)-3,5-dihydro-1H-thieno[2,3-c][1,6]naphthyridin-6-one] |  | ≤ 1
